Laboratory results as given in patent US8629242B2, “Methods of inhibiting calcineurin with ApoE analogs” (Cognosci, Inc., priority 2007, dated 2014).
Read-outs that look alike come from different tables or passages of the source. Where a SMILES comes first, the peptide text is derived from it. [ ]: non-standard residue; d: D form. Arg(NO2) = N=C(NCCC[C@H](N)C(=O)O)N[N+](=O)[O-]; Aib = CC(C)(N)C(=O)O

Key:
enriched OPC cultures = assay: Number of mature oligodendrocytes after differentiation of enriched OPC culture; type: cell-based, rat; conditions: 2 μM COG 133, 1 μM COG 112 or 1 μM COG 68 for four days, then six days differentiation without analog
Description: FIG. 11. ApoE analogs increase the number of mature oligodendrocytes in culture. ApoE analogs (COG 133, COG 112, and COG 68) were added to enriched OPC culture in proliferation media for four days. Cultures were then differentiated in the absence of the ApoE analogs. Cells were labeled with a GST-π antibody to detect mature oligodendrocytes.
Since COG 112 increased the proliferation of OPCs, we next examined whether the ApoE analogs could also increase the number of mature oligodendrocytes. Enriched OPC cultures were prepared as described for the previous experiment. 2 μM COG 133 (SEQ ID NO: 1), 1 μM COG 112 (SEQ ID NO: 5), or 1 μM COG 68 (Ac-[…]-NH2; SEQ ID NO: 7) were added to the enriched OPC cultures in proliferation media for four days. The media was then replaced with differentiation medium without the ApoE analogs for an additional six days. Cells were labeled with a GST-π antibody to detect mature oligodendrocytes.

microglia cell line BV2 = assay: LPS-induced NO and TNF-α release in BV2 microglia; type: cell-based, murine; conditions: LPS 10 ng/ml, 24 hours
Description: FIG. 16. […] Series concentrations of ApoE analogs were added to culture medium together with LPS (10 ng/ml). 24 hours later, culture medium was collected for measurement of NO by Griess assay or TNF-α by ELISA. […] ApoE analogs (10 μM) were added to the cell medium of human macrophage U937 5 minutes prior to PMA+LPS treatment. The release of superoxide in culture medium was measured by Luminol assay kit (Calbiochem).
The murine microglia cell line BV2 was used as the first screening platform to compare the potency of ApoE analogs in anti-inflammatory activity. In response to LPS, BV2 produces amounts of reactive radical NO and inflammatory cytokines, such as TNF-α and IL-6. We stimulated the cells with LPS (10 ng/ml) in the presence of several concentrations of each of the ApoE analogs. We measured NO in medium by Griess assay and TNF-α by ELISA 24 hours after LPS stimulation of the cells. The IC50 value was calculated for each of the ApoE analogs.

Calcineurin = biological target: T1, Calcineurin (Homo sapiens, UniProt Q08209); assay: Cell-free calcineurin phosphatase activity assay (BioMol kit); type: biochemical; conditions: various concentrations
T1 construct: purchased BioMol AK-804
Description: FIG. 14. ApoE analogs bind directly to calcineurin and inhibit its activity. […] (B) Immunoprecipitation of human brain lysate with a biotin-COG 133 conjugate. Lane 1=markers; lane 2=clear bead; lane 3=biotin-COG 133 bead conjugate; and lane 4=10 μg lysate. (C) Immunoprecipitation of different glial cultures with a biotin-COG 133 conjugate. Lane 1=markers; lane 2=astrocyte; lane 3=microglia; and lane 4=oligodendrocyte precursor cells (OPC). Blots in B and C were probed for calcineurin (PP2B).
Calcineurin activity was measured in a cell-free in vitro assay in the presence of various concentrations of COG 133 (SEQ ID NO: 1), COG 112 (SEQ ID NO: 5), COG 68 (SEQ ID NO: 7), COG 125 (Ac-AS(Aib)LRKL(Aib)KR—COOH; SEQ ID NO: 8), or antennapedia (antp), the prefix peptide for COG 112. […] Using a BioMol Calcineurin Phosphatase Activity Kit (Cat. #AK-804), the assay was conducted according to manufacturer's instructions. […] This inhibition of calcineurin activity by ApoE analogs is mediated by a direct interaction of the ApoE analog with the phosphatase.

Maximum tolerated dose = type: in vivo; conditions: in vivo
Excerpt: To fully evaluate the use of ApoE analogs as therapeutic compounds, the margin of safety should also be determined. Towards that end, we determined the maximum tolerated dose of COG 112, COG 248, and COG 345 when administered by intravenous and subcutaneous injection.

[1] = system: PLP-induced relapsing-remitting experimental autoimmune encephalomyelitis (EAE) model; assay: PLP-induced relapsing-remitting EAE model; type: in vivo; design: CSmax during relapse (mean ± SEM) / Area under curve (mean ± SEM): scale not given here; conditions: 4 mg/kg s.c.
Description: To further compare the activity of the various ApoE analogs, the efficacy of the analogs was assessed in a PLP-induced relapsing-remitting experimental autoimmune encephalomyelitis (EAE) model. […] The second dose was administered the next day followed by three times a week (M, W, F). Relapse rate represents the number of animals experiencing a relapse, while the CSmax indicates the maximal clinical score during relapse. Area under curve represents the area under the curve in a plot of clinical score vs. days post-inoculation (out to 60 days). […] The improvement in relapse rate and clinical score in the EAE model by ApoE analog treatment may be due, in part, to the remyelination-promoting effect of the ApoE analogs.

[2] = system: oligodendrocyte precursor cells (OPC)/microglia mixed culture; assay: LPS-induced OPC cell death in OPC/microglia mixed culture; type: cell-based, rat; conditions: 1 μM, LPS 10 ng/ml, 24 hours
Description: FIG. 9. COG 112 protects OPCs from LPS-induced cell death in OPC/microglia mixed culture. LPS (final conc. 10 ng/ml) was added to an OPC/microglia mixed culture with or without 1 μM COG 112. The prefix peptide of COG 112, antennapedia, was used as a negative control. Cells were fixed with 4% formaldehyde and stained with the OPC marker, NG2, and counterstained with hoescht. (A) LPS-treated cultures; (B) LPS+antennapedia (Antp)-treated cultures; (C) LPS+COG 112-treated cultures; (D) Bar graph summarizing the number of NG2+ cells per field in each condition. ** p<0.01.
FIG. 19. COG 345 promotes remyelination in lysolecithin-induced demyelination model of cerebellum slices. Significant demyelination was induced by lysolecithin (0.5 mg/ml) in cerebellar slices. COG 112 or COG 345 (1 μM) was added on day 3 when full demyelination was achieved. 4 days later, the slices were fixed and double stained with myelin marker MBP (green) and Purkinje cell marker calbindin (red). (A) Untreated-slices; (B) lysolecithin-treated slices; (C) COG 112-treated slices after lysolecithin exposure; (D) COG 345-treated slices after lysolecithin exposure. E-F. ApoE analogs protect OPCs from LPS-induced cell death in OPC/microglia mixed culture. OPCs and microglia derived from brain culture of P2 rat pups were plated in 96-well plates in 1:1 ratio. LPS (10 ng/ml) together with 1 μM of the indicated ApoE analogs was added to the cultures. After 24 hours, OPC cell death was quantified by LDH assay (E) and MTT assay (F). Statistical analysis was conducted by one-way ANOVA followed by Dunnett comparison vs. LPS group. * P<0.01, ** P<0.001, n=3.
A primary culture prepared from the brains of P2 Sprague-Dawley rat pups was grown for seven days. Microglia and OPCs were shaken off from the primary culture with an orbital shaker at 150˜200 rpm. The OPCs and microglia were plated in 24-well plates at a 1:1 ratio with 5×10^4 cells per well of each cell type. After 24 hours, LPS (final conc. 10 ng/ml) was added with or without 1 μM COG 112. The prefix peptide of COG 112, antennapedia, was used as a negative control. After incubation for 72 hours, the medium was removed and cells were fixed with 4% formaldehyde and stained with the OPC marker, NG2, and counterstained with hoescht. Five fields from each of the wells were randomly chosen to count the number of NG2-positive cells.
To further assess the ability of the novel ApoE analogs to promote remyelination, the effect of the analogs on OPC survival was assessed in an OPC/microglia mixed culture. OPC and microglia derived from primary culture of P2 rat pup brain were plated on 96-well plates in 1:1 ratio. […] After 24 hours, cell death of OPC was quantified by both LDH and MTT assays.

[3] = Anti-inflammatory properties in vitro or in vivo (general statement)
Excerpt: The following ApoE analogs, COG 112, COG 1410, COG 241, COG 248, COG 68, and COG 345, have been identified as having improved properties as compared to the ApoE peptide, COG 133.

acetyl-RRLSYSRRRFLRVRLASHLRKLRKRLL-amide (Ac-RRLSYSRRRFLRVRLASHLRKLRKRLL-NH2) [COG 68, ApoE peptide linked to the protein transduction domain SynB3]
number of mature oligodendrocytes (GST-π) (enriched OPC cultures): significantly increased the number of mature oligodendrocytes | activity in suppression of microglia activation (NO by Griess assay, TNF-α by ELISA) (microglia cell line BV2): clearly superior to that of COG 133 | inhibition of calcineurin activity (Calcineurin): dose-dependent inhibition

CC(=O)N[C@@H](CC(C)C)C(=O)N[C@@H](CCCNC(=N)N)C(=O)N[C@H](C(=O)N[C@@H](CCCNC(=N)N)C(=O)N[C@@H](CC(C)C)C(=O)N[C@@H](C)C(=O)N[C@@H](CO)C(=O)NC(C)(C)C(=O)N[C@@H](CC(C)C)C(=O)N[C@@H](CCCNC(=N)N)C(=O)N[C@@H](CCCCN)C(=O)N[C@@H](CC(C)C)C(=O)N[C@@H](CCCNC(=N)N)C(=O)N[C@@H](CCCCN)C(=O)N[C@@H](CCCNC(=N)N[N+](=O)[O-])C(=O)N[C@@H](CC(C)C)C(=O)N[C@@H](CC(C)C)C(N)=O)C(C)C [COG 248, acetyl-LRVRLAS-Aib-LRKLRK(nitro-Arg)LL-amide] (Ac-LRVRLAS[Aib]LRKLRK[Arg(NO2)]LL-NH2)
MTD (Maximum tolerated dose; sc, subcutaneous injection, read-out: Maximum Tolerated Dose Subcutaneous): > 150 mg/kg | MTD (Maximum tolerated dose; intravenous injection, read-out: Maximum Tolerated Dose Intravenous): 25 mg/kg

acetyl-Aib-LRKL-Aib-(n acetyl K)RLL-amide (Ac-[Aib]LRKL[Aib]K(Ac)RLL-NH2; SMILES CC(=O)NCCCC[C@H](NC(=O)C(C)(C)NC(=O)[C@H](CC(C)C)NC(=O)[C@H](CCCCN)NC(=O)[C@H](CCCNC(=N)N)NC(=O)[C@H](CC(C)C)NC(=O)C(C)(C)NC(C)=O)C(=O)N[C@@H](CCCNC(=N)N)C(=O)N[C@@H](CC(C)C)C(=O)N[C@@H](CC(C)C)C(N)=O) [COG 241]
Area under curve (mean ± SEM) ([1]; clinical score vs days post-inoculation, out to 60 days): 13.5 ± 2.6 | CSmax during relapse (mean ± SEM) ([1]; maximal clinical score during relapse): 2.3 ± 0.8 | Relapse Rate ([1]; number of animals experiencing a relapse): 8/15

CCCCCCCCc1ccc(CCC(N)(CO)CO)cc1 [FTY720, reference compound]
OPC cell death by LDH and MTT assays [2]: did not show a clear protective effect

acetyl-AS-Aib-LRKL-Aib-KRLL-amide [COG 1410]
activity in suppression of microglia activation (NO by Griess assay, TNF-α by ELISA) (microglia cell line BV2): clearly superior to that of COG 133

acetyl-AS-Aib-LRKL-Aib-KR-amide (Ac-AS[Aib]LRKL[Aib]KR-NH2; SMILES CC(=O)N[C@@H](C)C(=O)N[C@@H](CO)C(=O)NC(C)(C)C(=O)N[C@@H](CC(C)C)C(=O)N[C@@H](CCCNC(=N)N)C(=O)N[C@@H](CCCCN)C(=O)N[C@@H](CC(C)C)C(=O)NC(C)(C)C(=O)N[C@@H](CCCCN)C(=O)N[C@@H](CCCNC(=N)N)C(N)=O) [COG 125, reference compound]
inhibition of calcineurin activity (Calcineurin): Inactive | anti-inflammatory properties [3]: did not exhibit any anti-inflammatory properties
